Measurements reported in PMC8348686, “The Pharmacological Profile of Second Generation Pyrovalerone Cathinones and Related Cathinone Derivative” (International Journal of Molecular Sciences, 2021).
Like-named read-outs stand apart in the source and are kept apart here.

Assays:
Human TAAR1 = tested on: Human TAAR1; set-up: method as in Simmler et al. (2016); settings: ref Simmler et al. (2016); read-out: Human TAAR1 Activation Potency EC50 ± SD; cited from earlier work
Rat TAAR1 = settings: [3H]-RO5166017, cited from earlier work; for Ki: read-out: Rat TAAR1 Receptor Binding Ki ± SD
hNET [1] = molecular target: T1, hNET (Homo sapiens, UniProt P23975); settings: read-out: hNET Receptor Binding Ki ± SD, N-Methyl-[3H]-nisoxetine, cited from earlier work
T1 sequence (P23975 whole entry): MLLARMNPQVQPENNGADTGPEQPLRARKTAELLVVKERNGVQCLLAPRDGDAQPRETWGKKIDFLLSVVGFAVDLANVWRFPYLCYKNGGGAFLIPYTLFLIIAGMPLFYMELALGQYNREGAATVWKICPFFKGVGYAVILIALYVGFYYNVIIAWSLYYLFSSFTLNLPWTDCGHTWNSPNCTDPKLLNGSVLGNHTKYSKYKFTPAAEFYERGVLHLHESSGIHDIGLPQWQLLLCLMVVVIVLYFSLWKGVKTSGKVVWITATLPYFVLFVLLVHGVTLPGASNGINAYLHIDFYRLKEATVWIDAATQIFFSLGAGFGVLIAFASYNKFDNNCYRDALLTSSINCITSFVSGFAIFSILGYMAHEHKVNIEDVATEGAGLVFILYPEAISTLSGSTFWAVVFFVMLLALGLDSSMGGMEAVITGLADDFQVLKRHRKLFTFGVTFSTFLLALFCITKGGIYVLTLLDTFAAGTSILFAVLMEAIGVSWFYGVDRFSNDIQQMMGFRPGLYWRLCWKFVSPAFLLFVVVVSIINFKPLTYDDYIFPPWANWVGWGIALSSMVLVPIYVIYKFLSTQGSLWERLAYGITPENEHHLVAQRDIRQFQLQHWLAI

hSERT = hSERT (Homo sapiens, UniProt P31645); assay: Transporter binding, [3H]-citalopram
Sequence of hSERT (P31645 whole entry): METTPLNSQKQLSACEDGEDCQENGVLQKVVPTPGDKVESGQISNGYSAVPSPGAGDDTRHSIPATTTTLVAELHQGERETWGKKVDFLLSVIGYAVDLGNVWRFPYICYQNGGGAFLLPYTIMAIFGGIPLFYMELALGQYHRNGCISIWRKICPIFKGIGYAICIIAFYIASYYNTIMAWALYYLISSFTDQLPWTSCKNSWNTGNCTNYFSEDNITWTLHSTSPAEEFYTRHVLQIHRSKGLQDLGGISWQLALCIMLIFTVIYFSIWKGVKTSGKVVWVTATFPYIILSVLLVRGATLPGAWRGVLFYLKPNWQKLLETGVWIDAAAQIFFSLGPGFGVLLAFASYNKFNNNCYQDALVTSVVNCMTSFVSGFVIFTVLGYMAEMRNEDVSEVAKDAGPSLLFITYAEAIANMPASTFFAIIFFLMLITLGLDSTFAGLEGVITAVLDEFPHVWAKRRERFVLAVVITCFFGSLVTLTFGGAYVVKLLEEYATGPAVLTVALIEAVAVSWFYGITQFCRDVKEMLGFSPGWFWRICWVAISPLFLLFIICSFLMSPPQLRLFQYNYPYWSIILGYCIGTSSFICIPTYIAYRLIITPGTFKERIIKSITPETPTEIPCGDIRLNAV

adrenergic α1A receptor = molecular target: T2, adrenergic α1A receptor (Homo sapiens, UniProt P35348); assay: Receptor binding, [3H]-prazosin
T2 sequence (P35348 1-466): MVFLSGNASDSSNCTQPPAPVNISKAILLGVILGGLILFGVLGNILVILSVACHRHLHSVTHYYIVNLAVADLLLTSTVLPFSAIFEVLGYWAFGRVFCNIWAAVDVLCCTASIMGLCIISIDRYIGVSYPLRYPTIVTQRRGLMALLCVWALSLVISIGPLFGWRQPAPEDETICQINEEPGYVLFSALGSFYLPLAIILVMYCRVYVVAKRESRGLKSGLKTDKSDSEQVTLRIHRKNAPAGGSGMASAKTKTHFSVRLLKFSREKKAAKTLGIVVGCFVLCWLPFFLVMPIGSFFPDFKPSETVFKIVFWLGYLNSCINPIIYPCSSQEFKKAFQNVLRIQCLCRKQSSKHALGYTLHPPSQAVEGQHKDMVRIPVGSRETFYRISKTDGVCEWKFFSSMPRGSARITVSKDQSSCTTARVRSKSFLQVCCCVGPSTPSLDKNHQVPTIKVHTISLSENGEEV

adrenergic α2A receptor = molecular target: T3, adrenergic α2A receptor (Homo sapiens, UniProt P08913); assay: Receptor binding, [3H]-rauwolscine
T3 sequence (P08913 1-465): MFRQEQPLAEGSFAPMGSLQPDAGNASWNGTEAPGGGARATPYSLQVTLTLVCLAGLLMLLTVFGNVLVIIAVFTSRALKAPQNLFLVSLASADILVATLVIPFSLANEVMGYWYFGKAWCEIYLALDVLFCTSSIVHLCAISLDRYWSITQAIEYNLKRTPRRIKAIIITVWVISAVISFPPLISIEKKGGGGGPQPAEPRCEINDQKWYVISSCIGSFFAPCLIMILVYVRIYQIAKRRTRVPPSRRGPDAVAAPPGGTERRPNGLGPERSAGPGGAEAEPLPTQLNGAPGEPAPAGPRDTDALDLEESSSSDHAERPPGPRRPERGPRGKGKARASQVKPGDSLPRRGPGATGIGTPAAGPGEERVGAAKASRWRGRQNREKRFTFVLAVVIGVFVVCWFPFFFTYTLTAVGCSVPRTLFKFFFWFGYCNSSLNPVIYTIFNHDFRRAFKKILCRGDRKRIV
From the text: Table 3 Monoamine transporter and receptor binding affinities of pyrovalerone and NEH. | column: α2A / Receptor Binding / Ki ± SD [μM] / [^3H]-Rauwolscine

dopaminergic D2 receptor = dopaminergic D2 receptor (Homo sapiens, UniProt P14416); assay: Receptor binding, [3H]-spiperone
Sequence of dopaminergic D2 receptor (P14416 whole entry): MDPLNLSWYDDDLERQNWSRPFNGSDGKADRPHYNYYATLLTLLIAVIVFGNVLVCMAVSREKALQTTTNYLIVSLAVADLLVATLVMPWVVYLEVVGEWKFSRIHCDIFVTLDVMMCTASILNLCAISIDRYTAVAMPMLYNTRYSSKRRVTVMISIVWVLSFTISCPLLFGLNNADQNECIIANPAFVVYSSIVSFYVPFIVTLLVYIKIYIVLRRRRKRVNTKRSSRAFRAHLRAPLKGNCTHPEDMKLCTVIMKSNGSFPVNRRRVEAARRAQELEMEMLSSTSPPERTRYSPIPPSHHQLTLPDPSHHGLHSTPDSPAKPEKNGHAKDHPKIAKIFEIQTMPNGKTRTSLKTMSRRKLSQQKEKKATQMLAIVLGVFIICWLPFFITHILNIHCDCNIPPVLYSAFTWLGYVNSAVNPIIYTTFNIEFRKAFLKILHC
From the text: Table 3 Monoamine transporter and receptor binding affinities of pyrovalerone and NEH. | column: D2 / Receptor Binding / Ki ± SD [μM] / [^3H]-Spiperone

hNET [2] = molecular target: T1, hNET; assay: Transporter binding, N-methyl-[3H]-nisoxetine
From the text: Table 3 Monoamine transporter and receptor binding affinities of pyrovalerone and NEH. | column: hNET / Receptor Binding / Ki ± SD [μM] / N-Methyl-[^3H]-nisoxetine

hDAT = hDAT (Homo sapiens, UniProt Q01959); assay: Transporter binding, [3H]-WIN-35,428
Sequence of hDAT (Q01959 whole entry): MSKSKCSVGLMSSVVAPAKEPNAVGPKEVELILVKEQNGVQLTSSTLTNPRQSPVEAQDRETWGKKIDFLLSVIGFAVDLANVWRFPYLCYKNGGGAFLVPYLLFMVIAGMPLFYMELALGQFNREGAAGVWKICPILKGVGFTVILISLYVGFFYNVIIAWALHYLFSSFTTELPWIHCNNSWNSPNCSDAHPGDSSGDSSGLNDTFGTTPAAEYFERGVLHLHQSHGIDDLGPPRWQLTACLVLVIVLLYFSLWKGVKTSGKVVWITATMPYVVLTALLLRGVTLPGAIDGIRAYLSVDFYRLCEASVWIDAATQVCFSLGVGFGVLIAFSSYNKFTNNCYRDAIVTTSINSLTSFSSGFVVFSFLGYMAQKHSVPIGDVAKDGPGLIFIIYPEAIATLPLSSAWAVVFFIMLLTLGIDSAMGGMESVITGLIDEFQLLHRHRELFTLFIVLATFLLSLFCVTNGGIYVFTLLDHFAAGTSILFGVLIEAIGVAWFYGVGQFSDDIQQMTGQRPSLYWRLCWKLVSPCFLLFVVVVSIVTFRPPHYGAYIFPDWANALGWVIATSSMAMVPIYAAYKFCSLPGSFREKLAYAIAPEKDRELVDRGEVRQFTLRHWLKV

h5-HT2B receptor = molecular target: T4, h5-HT2B receptor (Homo sapiens, UniProt P41595); set-up: method as in Rickli et al. (2015); settings: read-out: h5-HT2B Activation Potency EC50 ± SD; ref Rickli et al. (2015); cited from earlier work
T4 construct: expressed in transfected cells; host or cells: HEK293
T4 sequence (P41595 whole entry): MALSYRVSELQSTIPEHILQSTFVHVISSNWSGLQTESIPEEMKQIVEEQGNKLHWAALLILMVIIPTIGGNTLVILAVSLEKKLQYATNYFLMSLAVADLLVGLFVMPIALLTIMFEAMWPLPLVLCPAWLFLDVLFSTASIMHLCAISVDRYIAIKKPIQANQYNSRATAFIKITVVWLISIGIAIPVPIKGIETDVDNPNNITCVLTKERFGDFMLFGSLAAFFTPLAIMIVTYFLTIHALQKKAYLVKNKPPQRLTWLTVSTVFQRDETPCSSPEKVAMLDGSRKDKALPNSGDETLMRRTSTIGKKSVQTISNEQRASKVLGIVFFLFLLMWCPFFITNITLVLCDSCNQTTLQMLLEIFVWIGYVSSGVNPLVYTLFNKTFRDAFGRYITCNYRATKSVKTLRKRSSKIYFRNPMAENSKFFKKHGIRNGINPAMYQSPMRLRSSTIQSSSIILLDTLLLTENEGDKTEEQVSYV

h5-HT2A receptor [3] = molecular target: T5, h5-HT2A receptor (Homo sapiens, UniProt P28223); set-up: expressed in transfected cells; host or cells: HEK293 cell preparations; method as in Rickli et al. (2015); settings: read-out: h5-HT2A Activation Potency EC50 ± SD; ref Rickli et al. (2015); cited from earlier work
T5 sequence (P28223 whole entry): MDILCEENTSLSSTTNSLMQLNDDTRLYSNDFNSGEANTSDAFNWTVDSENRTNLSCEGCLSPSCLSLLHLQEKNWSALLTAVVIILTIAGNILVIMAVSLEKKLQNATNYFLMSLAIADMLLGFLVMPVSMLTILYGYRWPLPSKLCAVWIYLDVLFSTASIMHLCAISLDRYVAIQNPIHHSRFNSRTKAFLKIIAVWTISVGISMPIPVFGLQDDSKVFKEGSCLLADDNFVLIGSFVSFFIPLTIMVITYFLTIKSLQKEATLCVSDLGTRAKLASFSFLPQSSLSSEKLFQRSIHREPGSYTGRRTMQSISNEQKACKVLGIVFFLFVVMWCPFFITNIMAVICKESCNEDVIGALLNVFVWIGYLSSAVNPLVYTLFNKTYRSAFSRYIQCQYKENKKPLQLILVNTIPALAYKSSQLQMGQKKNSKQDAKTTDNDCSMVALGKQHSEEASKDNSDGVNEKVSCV

h5-HT2A receptor [4] = molecular target: T5, h5-HT2A receptor; set-up: expressed in transfected cells; host or cells: HEK293 cell preparations; settings: read-out: h5-HT2A Receptor Binding Ki ± SD; [3H]-Ketanserin; ref Rickli et al. (2015); cited from earlier work
[5] = ref Luethi, Kolaczynska et al. (2019)

In the case of `CCCC(C(=O)c1ccc2c(c1)OCO2)N1CCCC1` (centres unmarked) [MDPV, 3,4-methylenedioxypyrovalerone], the EC50 (Human TAAR1) is listed as over 30 µM, the “Rat TAAR1 Receptor Binding Ki ± SD” value (Rat TAAR1; ref Simmler et al. (2013)) is listed as “bound the rat TAAR1” and the Ki (Rat TAAR1; ref Simmler et al. (2013)) is listed as 7.2 ± 1.1 µM. For the same compound, the Ki (hNET [1]; ref Simmler et al. (2013)) was 80 ± 20 nM.
In the case of `CCCC(C(=O)c1ccc(C)cc1)N1CCCC1` (centres unmarked) [Pyrovalerone, pyrovalerone], the Ki (Rat TAAR1; ref Simmler et al. (2013)) is given as over 12.5 µM and the Ki (hNET [1]; ref Simmler et al. (2013)) is given as 60 ± 10 nM.
Work on `Cc1ccc(C(=O)C(C)N2CCCC2)cc1` (stereo not drawn) [4-MePPP, 4-methyl-α-pyrrolidinopropiophenone] yielded a Ki (hSERT) of over 7.4 µM, a Ki (adrenergic α1A receptor) of 2200 ± 100 nM and a Ki (adrenergic α2A receptor) of over 4.7 µM. The Ki (dopaminergic D2 receptor) was over 13 µM, the Ki (hNET [2]) was 2500 ± 700 nM and the Ki (hDAT) was 300 ± 20 nM.
For `CC(C(=O)c1ccc2c(c1)OCO2)N1CCCC1` (stereo not drawn) [MDPPP, 3,4-methylenedioxy-α-pyrrolidinopropiophenone], the “Rat TAAR1 Receptor Binding Ki ± SD” value (Rat TAAR1; ref Rickli et al. (2015)) is listed as “bound the rat TAAR1”, the Ki (Rat TAAR1; ref Rickli et al. (2015)) is listed as 16 ± 6.7 µM and the Ki (hNET [1]; ref Rickli et al. (2015)) is listed as 3500 ± 1000 nM.
For `CCC(C(=O)c1ccc2c(c1)OCO2)N1CCCC1` (stereo not drawn) [MDPBP, 3,4-methylenedioxy-α-pyrrolidinobutiophenone], the Ki (Rat TAAR1; ref Rickli et al. (2015)) is given as over 20 µM and the Ki (hNET [1]; ref Rickli et al. (2015)) is given as 1100 ± 100 nM.
For `CNC(C)Cc1ccc2c(c1)OCO2` (centres unmarked) [MDMA, 3,4-methylenedioxymethamphetamine, reference compound], the EC50 (Human TAAR1) is given as 35 ± 21 µM, the EC50 (h5-HT2B receptor) is given as over 20 µM and the EC50 (h5-HT2A receptor [3]) is given as 6.1 ± 0.3 µM. For the same compound, the Ki (Rat TAAR1; [5]) was 0.25 ± 0.01 µM, the Ki (h5-HT2A receptor [4]) was 6.3 ± 2.4 µM and the Ki (hNET [1]; [5]) was over 8700 nM.
For `CCCC(C(=O)c1ccccc1)N1CCCC1` (stereo not drawn) [α-PVP, α-pyrrolidinopentiophenone], the “Rat TAAR1 Receptor Binding Ki ± SD” value (Rat TAAR1; ref Rickli et al. (2015)) is listed as “bound the rat TAAR1”, the Ki (Rat TAAR1; ref Rickli et al. (2015)) is listed as 16 ± 6.4 µM and the Ki (hNET [1]; ref Rickli et al. (2015)) is listed as 60 ± 20 nM.
